Assay type in all cases: cell-based
For assay [1], the target named is T1, human TLR9 (Homo sapiens, UniProt Q9NR96).
T1 construct: host or cells: HEK-Blue cells
T1 sequence (Q9NR96 26-1032): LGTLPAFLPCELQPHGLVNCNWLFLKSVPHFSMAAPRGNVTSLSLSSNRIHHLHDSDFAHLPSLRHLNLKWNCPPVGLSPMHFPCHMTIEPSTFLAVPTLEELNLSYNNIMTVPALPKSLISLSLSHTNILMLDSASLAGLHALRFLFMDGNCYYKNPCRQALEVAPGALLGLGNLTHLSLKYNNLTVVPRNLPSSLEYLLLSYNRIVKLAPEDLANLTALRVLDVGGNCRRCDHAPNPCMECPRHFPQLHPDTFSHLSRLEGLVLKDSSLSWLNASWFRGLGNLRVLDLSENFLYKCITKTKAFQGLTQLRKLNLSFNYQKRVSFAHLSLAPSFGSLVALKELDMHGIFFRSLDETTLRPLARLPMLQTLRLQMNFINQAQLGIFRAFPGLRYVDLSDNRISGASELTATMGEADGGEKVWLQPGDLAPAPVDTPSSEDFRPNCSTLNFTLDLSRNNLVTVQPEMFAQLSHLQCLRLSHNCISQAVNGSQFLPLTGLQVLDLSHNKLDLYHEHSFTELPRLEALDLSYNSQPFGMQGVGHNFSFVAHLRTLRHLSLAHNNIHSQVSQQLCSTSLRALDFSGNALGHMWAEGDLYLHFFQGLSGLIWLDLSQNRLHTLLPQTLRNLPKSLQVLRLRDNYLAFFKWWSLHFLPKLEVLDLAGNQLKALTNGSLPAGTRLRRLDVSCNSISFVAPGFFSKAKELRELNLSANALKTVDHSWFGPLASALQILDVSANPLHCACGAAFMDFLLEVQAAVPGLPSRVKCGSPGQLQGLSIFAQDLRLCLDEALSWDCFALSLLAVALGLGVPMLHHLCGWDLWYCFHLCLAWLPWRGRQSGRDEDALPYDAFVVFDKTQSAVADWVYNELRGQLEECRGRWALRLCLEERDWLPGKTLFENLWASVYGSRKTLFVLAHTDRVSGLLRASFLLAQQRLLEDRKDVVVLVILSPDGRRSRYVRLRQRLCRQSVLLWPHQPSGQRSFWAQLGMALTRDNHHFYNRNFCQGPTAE
In words: TLR9 inhibition reporter assay (HEK-Blue, SEAP). The settings on record: HEK-Blue cells overexpressing human TLR9, ligand ODN2006 200 nM, 22 hour incubation. Put shortly: (§1)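 HEK-Blue cells expressing human TLR7, TLR8 or TLR9 with NF-κB/AP-1-driven SEAP reporter; compounds 0.85 nM–50 μM, pre-treated 60 min. Stimulation: gardiquimod 2.5 μM (TLR7), R848 14.25 μM (TLR8), ODN2006 200 nM (TLR9); SEAP read after 22 h at 37 °C. Percent inhibition normalized between agonist+DMSO and known-inhibitor wells.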

For assay [2], the target named is T2, human TLR7 (Homo sapiens, UniProt Q9NYK1).
T2 construct: host or cells: HEK-Blue cells
T2 sequence (Q9NYK1 27-1049): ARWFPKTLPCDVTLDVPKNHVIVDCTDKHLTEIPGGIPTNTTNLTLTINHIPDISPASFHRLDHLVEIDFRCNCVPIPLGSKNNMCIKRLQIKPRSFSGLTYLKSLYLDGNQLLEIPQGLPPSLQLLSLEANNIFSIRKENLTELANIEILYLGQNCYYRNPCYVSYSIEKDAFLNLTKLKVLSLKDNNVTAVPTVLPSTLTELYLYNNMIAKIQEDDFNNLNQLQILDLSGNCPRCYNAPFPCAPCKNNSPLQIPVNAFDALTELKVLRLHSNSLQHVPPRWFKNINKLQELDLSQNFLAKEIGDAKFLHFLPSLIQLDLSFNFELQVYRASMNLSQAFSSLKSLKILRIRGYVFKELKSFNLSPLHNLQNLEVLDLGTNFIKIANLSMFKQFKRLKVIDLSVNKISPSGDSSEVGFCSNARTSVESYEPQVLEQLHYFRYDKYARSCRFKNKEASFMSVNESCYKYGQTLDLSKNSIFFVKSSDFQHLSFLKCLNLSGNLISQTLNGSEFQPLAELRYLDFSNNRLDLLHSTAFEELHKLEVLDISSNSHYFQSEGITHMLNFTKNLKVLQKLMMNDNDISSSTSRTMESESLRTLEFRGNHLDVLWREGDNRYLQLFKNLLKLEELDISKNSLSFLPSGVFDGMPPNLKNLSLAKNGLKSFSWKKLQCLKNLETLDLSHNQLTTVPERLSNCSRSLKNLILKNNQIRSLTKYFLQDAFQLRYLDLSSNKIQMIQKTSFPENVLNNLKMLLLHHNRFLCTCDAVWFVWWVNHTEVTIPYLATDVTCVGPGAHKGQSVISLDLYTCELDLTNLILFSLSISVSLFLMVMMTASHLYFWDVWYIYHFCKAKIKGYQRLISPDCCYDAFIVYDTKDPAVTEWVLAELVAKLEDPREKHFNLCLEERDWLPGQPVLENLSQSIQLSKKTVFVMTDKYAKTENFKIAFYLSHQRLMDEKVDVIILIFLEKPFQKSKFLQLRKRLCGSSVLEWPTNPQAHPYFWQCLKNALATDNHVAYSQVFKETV
The assay can be described thus: TLR7 inhibition reporter assay (HEK-Blue, SEAP). As to conditions: HEK-Blue cells overexpressing human TLR7, ligand gardiquimod 2.5 μM, 22 hour incubation. Put shortly:
as §1
A general note: In a reporter assay the amount or activity of a reporter protein is the signal.

Assay [3] deals with T3, human TLR8 (Homo sapiens, UniProt Q9NR97).
T3 construct: host or cells: HEK-Blue cells
T3 sequence (Q9NR97 27-1041): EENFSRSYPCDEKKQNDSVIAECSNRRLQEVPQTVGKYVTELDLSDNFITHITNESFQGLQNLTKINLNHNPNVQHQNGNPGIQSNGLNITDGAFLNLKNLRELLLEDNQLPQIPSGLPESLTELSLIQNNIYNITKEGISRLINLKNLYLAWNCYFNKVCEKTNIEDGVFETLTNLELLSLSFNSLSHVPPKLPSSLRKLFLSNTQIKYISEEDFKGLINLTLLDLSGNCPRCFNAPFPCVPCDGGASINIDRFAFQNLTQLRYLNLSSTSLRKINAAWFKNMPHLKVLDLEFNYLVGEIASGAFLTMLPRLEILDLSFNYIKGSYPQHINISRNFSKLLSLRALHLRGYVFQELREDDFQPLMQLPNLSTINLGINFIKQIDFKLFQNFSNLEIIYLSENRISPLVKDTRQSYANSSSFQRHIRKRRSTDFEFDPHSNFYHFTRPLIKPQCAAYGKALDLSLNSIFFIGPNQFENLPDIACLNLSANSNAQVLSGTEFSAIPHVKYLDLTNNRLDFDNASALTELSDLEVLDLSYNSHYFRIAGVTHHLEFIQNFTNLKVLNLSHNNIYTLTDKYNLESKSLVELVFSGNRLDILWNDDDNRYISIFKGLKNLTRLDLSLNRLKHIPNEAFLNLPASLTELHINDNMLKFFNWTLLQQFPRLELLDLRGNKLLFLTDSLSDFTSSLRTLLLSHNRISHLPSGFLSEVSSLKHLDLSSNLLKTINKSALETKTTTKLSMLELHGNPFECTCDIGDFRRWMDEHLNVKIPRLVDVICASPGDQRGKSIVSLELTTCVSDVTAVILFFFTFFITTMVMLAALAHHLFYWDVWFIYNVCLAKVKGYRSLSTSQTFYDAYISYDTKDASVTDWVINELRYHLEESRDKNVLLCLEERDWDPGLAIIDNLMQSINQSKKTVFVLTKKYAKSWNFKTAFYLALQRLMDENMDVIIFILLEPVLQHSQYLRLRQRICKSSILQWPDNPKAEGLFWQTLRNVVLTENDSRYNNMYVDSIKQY
The assay can be described thus: TLR8 inhibition reporter assay (HEK-Blue, SEAP). The settings on record: HEK-Blue cells overexpressing human TLR8, ligand R848 14.25 μM, 22 hour incubation. Put shortly: as §1

What is called IC50 is the midpoint of a concentration-inhibition curve.

Take `CC(C)CN1CC2(CCN(c3ccc(-c4ccc5nc(-c6ccc(S(C)(=O)=O)cc6)n(C)c5n4)cc3)CC2)C1` [Example 62, 5-(4-(2-isobutyl-2,7-diazaspiro[3.5]nonan-7-yl)phenyl)-3-methyl-2-(4-(methylsulfonyl)phenyl)-3H-imidazo[4,5-b]pyridine]: the IC50 was found to be 590 nM in assay [1], 15 µM in assay [2] and 6.1 µM in assay [3].
On to `CC(C)N1CC2(CCN(c3ccc(-c4ccc5nc(-c6ccc(S(C)(=O)=O)cc6)n(C)c5n4)cc3)CC2)C1` [Example 61, 5-(4-(2-isopropyl-2,7-diazaspiro[3.5]nonan-7-yl)phenyl)-3-methyl-2-(4-(methylsulfonyl)phenyl)-3H-imidazo[4,5-b]pyridine], for which the IC50 was determined as 560 nM in assay [1], 16 µM in assay [2] and 18 µM in assay [3].
In the case of `CC(C)CN1CCC(N2CCC(c3ccc4nc(-c5ccc(S(C)(=O)=O)cc5)n(C)c4n3)CC2)CC1` [Example 18, 5-(1′-isobutyl-[1,4′-bipiperidin]-4-yl)-3-methyl-2-(4-(methylsulfonyl)phenyl)-3H-imidazo[4,5-b]pyridine], the 50% inhibitory concentration (IC50) in assay [1] was 780 nM; in assay [2], 2.8 µM; in assay [3], more than 25 µM.
Take `CC(C)N1CCC(N2CCC(c3cnc4nc(-c5ccc(S(C)(=O)=O)cc5)n(C)c4c3)CC2)CC1` [Example 14, 6-(1′-isopropyl-[1,4′-bipiperidin]-4-yl)-1-methyl-2-(4-(methylsulfonyl)phenyl)-1H-imidazo[4,5-b]pyridine]: the IC50 is 3100 nM in assay [1], more than 50 µM in assay [2] and more than 50 µM in assay [3].
With `Cc1cc(C2CCN(C3CC4CCC(C3)N4CC3CC3)CC2)nc2c1nc(-c1ccc(S(C)(=O)=O)cc1)n2C` (single isomer, unassigned) [Example 31, 5-(1-(8-(cyclopropylmethyl)-8-azabicyclo[3.2.1]octan-3-yl)piperidin-4-yl)-3,7-dimethyl-2-(4-(methylsulfonyl)phenyl)-3H-imidazo[4,5-b]pyridine], the IC50 worked out at 240 nM in assay [1], 7.2 µM in assay [2] and 19 µM in assay [3].
Consider `COc1ccc(-c2nc3c(C)cc(-c4ccc(N5CCN(C(C)C)CC5)cc4)nc3n2C)cc1OC` [Example 10, 2-(3,4-dimethoxyphenyl)-5-(4-(4-isopropylpiperazin-1-yl)phenyl)-3,7-dimethyl-3H-imidazo[4,5-b]pyridine], for which the IC50 stood at 750 nM in assay [1], 1.9 µM in assay [2] and 17 µM in assay [3].
On to `Cc1cc(-c2ccc(CN3CC4(C3)CN(C3CCC3)C4)cc2)nc2c1nc(-c1ccc(S(C)(=O)=O)cc1)n2C1CC1` [Example 1, 5-(4-((6-cyclobutyl-2,6-diazaspiro[3.3]heptan-2-yl)methyl)phenyl)-3-cyclopropyl-7-methyl-2-(4-(methylsulfonyl)phenyl)-3H-imidazo[4,5-b]pyridine], for which the results for the IC50 in assay [1], in assay [2] and in assay [3] were 130 nM, 8.1 µM and 27 µM, respectively.
With `COc1ccc(-c2nc3c(C)cc(C4CCN([C@H]5C[C@@H]6CN(CC7CC7)C[C@@H]6C5)CC4)nc3n2C)cc1OC` [Example 38, 5-(1-(2-(cyclopropylmethyl)octahydrocyclopenta[c]pyrol-5-yl)piperidin-4-yl)-2-(3,4-dimethoxyphenyl)-3,7-dimethyl-3H-imidazo[4,5-b]pyridine], the IC50 is 80 nM in assay [1], 0.74 µM in assay [2] and more than 50 µM in assay [3].
As to `Cc1cc(C2CCN(C3CC4CCC(C3)N4CC3CC3)CC2)nc2c1nc(-c1ccc(S(C)(=O)=O)cc1)n2C` (single isomer, unassigned) [Example 30, 5-(1-(8-(cyclopropylmethyl)-8-azabicyclo[3.2.1]octan-3-yl)piperidin-4-yl)-3,7-dimethyl-2-(4-(methylsulfonyl)phenyl)-3H-imidazo[4,5-b]pyridine], the figures for the IC50 in assay [1], in assay [2] and in assay [3] were 60 nM, 2.9 µM and more than 50 µM, respectively.
Turning to `CS(=O)(=O)c1ccc(-c2nc3ccc(-c4ccc(N5CCN(CCN6CCOCC6)CC5)cc4)nc3n2C2CC2)cc1` [Example 57, 4-(2-(4-(4-(3-cyclopropyl-2-(4-(methylsulfonyl)phenyl)-3H-imidazo[4,5-b]pyridin-5-yl)phenyl)piperazin-1-yl)ethyl)morpholine], the IC50 was 3200 nM in assay [1], more than 50 µM in assay [2] and more than 50 µM in assay [3].
`CC(C)N1CC2(CN(c3ccc(-c4ccc5nc(-c6ccc(S(C)(=O)=O)cc6)n(C)c5n4)cc3)C2)C1` [Example 65, 5-(4-(6-isopropyl-2,6-diazaspiro[3.3]heptan-2-yl)phenyl)-3-methyl-2-(4-(methylsulfonyl)phenyl)-3H-imidazo[4,5-b]pyridine]: the IC50 in assay [1] is 740 nM; in assay [2] it was more than 50 µM; in assay [3], 3 µM.

These data come from US20250177363A1, “SUBSTITUTED IMIDAZOPYRIDINYL COMPOUNDS USEFUL AS INHIBITORS OF TLR9” (Bristol-Myers Squibb Company, priority 2022, published 2025).
